Measured values as given in patent publication US20040185558A1, “Method for culturing brain tissue in three dimensions” (priority 2003, published 2004).

System: hippocampal tissue grown under SMC
Assay: field EPSP evoked by electrical stimulation in hippocampal tissue cultured 10 days under simulated microgravity conditions
Format: cell-based, Sprauge-Dawley rats
Source text: In order to determine whether hippocampal tissue grown under SMC is able to generate electrical signals, hippocampal tissue grown under SMC for 10 days as described was electrically stimulated and field excitatory postsynaptic potential (EPSP) recorded. […] One important characteristic of the response is the presence of paired-pulse facilitation (PPF) (FIGS. 3A and 3B). PDF have been described and characterized in acute slices from the hippocampus and are an example of frequency-dependent short-term plasticity of excitatory synapses. This phenomenon is accounted for by the residual calcium hypothesis, according to which the small fraction of calcium entering the terminal during the first spike increases the probability of transmitter release to a second action potential (Zucker, 1989). […]
Sprauge-Dawley rats (7-9 days old) are quickly decapitated and the brain is rapidly removed and placed in ice-cold Gey's solution (g/L): NaCl (7), KCl (0.37), MgSO4-7H2O (0.06), MgCl2-6H2O (0.21), KH2PO4 (0.03), Na2HPO4-7H2O (0.23), Glucose (1), CaCl2-2H2O (0.23) and NaHCO3 ([…]). […] The slices will be monitored daily and rotary speed will be adjusted in order to avoid any free falling. […]

SMILES	effect on field EPSP (NMDA subtype glutamate receptor antagonist) (100 μM APV, hippocampal tissue grown under SMC, vs no antagonist)	effect on field EPSP (dependence on voltage gated calcium current) (perfused with 1 mM CoCl2, hippocampal tissue grown under SMC 10 days, reversible after washout)
NC(CCCP(=O)(O)O)C(=O)O (centres unmarked) [APV, amino-5-phosphonovaleric acid]	partially block	
[Cl][Co][Cl] [CoCl2, cobalt chloride]		reversibly blocked
